Data published in patent publication US7531553B2, “Heterocyclic compounds and methods of use” (Amgen Inc., priority 2003, dated 2009).

Tested on: Human Umbilical Vein Endothelial cells
Assay: HUVEC proliferation assay (VEGF-stimulated)
Type: cell-based
Settings: VEGF 50 ng/mL final, 72 h incubation, CyQuant dye, read-out: inhibited VEGF-stimulated HUVEC proliferation at a level (IC50)
Protocol: Human Umbilical Vein Endothelial cells are purchased from Clonetics, Inc., as cryopreserved cells harvested from a pool of donors. These cells, at passage 1, are thawed and expanded in EBM-2 complete medium, until passage 2 or 3. The cells are trypsinized, washed in DMEM+10% FBS+antibiotics, and spun at 1000 rpm for 10 min. Prior to centrifugation of the cells, a small amount is collected for a cell count. After centrifugation, the medium is discarded, and the cells are resuspended in the appropriate volume of DMEM+10% FBS+antibiotics to achieve a concentration of 3×10^5 cells/mL. Another cell count is performed to confirm the cell concentration. The cells are diluted to 3×10^4 cells/mL in DMEM+10% FBS+antibiotics, and 100 μL of cells are added to a 96-well plate. The cells are incubated at 37° C. for 22 h.
Prior to the completion of the incubation period, compound dilutions are prepared. Five-point, five-fold serial dilutions are prepared in DMSO, at concentrations 400-fold greater than the final concentrations desired. 2.5 μL of each compound dilution are diluted further in a total of 1 mL DMEM+10% FBS+antibiotics (400× dilution). Medium containing 0.25% DMSO is also prepared for the 0 μM compound sample. After 22-h, the medium is removed from the cells, and 100 μL of each compound dilution is added. The cells are incubated at 37° C. for 2-3 h.
During the compound pre-incubation period, the growth factors are diluted to the appropriate concentrations. Solutions of DMEM+10% FBS+antibiotics, containing either VEGF or bFGF at the following concentrations: 50, 10, 2, 0.4, 0.08, and 0 ng/mL are prepared. For the compound-treated cells, solutions of VEGF at 550 ng/mL or bFGF at 220 ng/mL for 50 ng/mL or 20 ng/mL final concentrations, respectively, are prepared since 10 μL of each will be added to the cells (110 μL final volume). At the appropriate time after adding the compounds, the growth factors are added. VEGF is added to one set of plates, while bFGF is added to another set of plates. For the growth factor control curves, the media on wells B4-G6 of plates 1 and 2 are replaced with media containing VEGF or bFGF at the varying concentrations (50-0 ng/mL). The cells are incubated at 37° C. for an additional 72 h.
At the completion of the 72 h incubation period, the medium is removed, and the cells are washed twice with PBS. After the second wash with PBS, the plates are tapped gently to remove excess PBS, and the cells are placed at −70° C. for at least 30 min. […] Raw data are collected and analyzed using a 4-parameter fit equation in XLFit. IC50 values are then determined.

SMILES	IC50 [nM]
COc1cc2nccc(Oc3ccc4oc(Nc5ccc(Cl)c(CN6CCN(C)CC6)c5)nc4c3)c2cc1OC [Example 45, 5-((6,7-bis(Methoxy)-4-quinolinyl)oxy)-N-(4-chloro-3-((4-methyl-1-piperazinyl)methyl)phenyl)-1,3-benzoxazol-2-amine]	< 100
CNc1cc(Oc2ccc3oc(Nc4ccc(Cl)c(OC[C@@H]5CCCN5C)c4)nc3c2)ccn1 [Example 239, [4-Chloro-3-((2S)-1-methylpyrrolidin-2-ylmethoxy)-phenyl]-[5-(2-methylamino-pyridin-4-yloxy)-benzoxazol-2-yl]-amine]	< 100
CNC(=O)c1cc(Oc2cc(Cl)c3oc(Nc4ccc(Cl)c(CN5CCN(C)CC5)c4)nc3c2)ccn1 [Example 245, 4-{7-Chloro-2-[4-chloro-3-(4-methyl-piperazin-1-ylmethyl)-phenylamino]-benzoxazol-5-yloxy}-pyridine-2-carboxylic acid methyl amide]	< 100
CNC(=O)c1cc(Oc2ccc3oc(Nc4ccc(Cl)c(CN5CCN(CCN(C)C)CC5)c4)nc3c2)ccn1 [Example 246, 4-[2-{4-Chloro-3-[4-(2-dimethylamino-ethyl)-piperazin-1-ylmethyl]-phenylamino}-benzoxazol-5-yloxy)-pyridine-2-carboxylic acid methylamide]	< 100
CN1CCN(Cc2cc(Nc3nc4cc(Oc5ccnc6ccccc56)ccc4[nH]3)ccc2Cl)CC1 [Example 28, [4-Chloro-3-(4-methyl-piperazin-1-ylmethyl)-phenyl]-[5-(quinolin-4-yloxy)-1H-benzimidazol-2-yl]-amine]	< 100
CN1CCC(COc2cc(Nc3nc4cc(Oc5ccnc6[nH]ccc56)ccc4o3)ccc2Cl)CC1 [Example 265, [4-Chloro-3-(1-methyl-piperidin-4-ylmethoxy)-phenyl]-[5-(1H-pyrrolo[2,3-b]pyridin-4-yloxy)-benzoxazol-2-yl]-amine]	< 100
CNC(=O)c1cc(Oc2ccc3oc(Nc4ccc(Cl)c(CN5CCN(C)CC5)c4)nc3c2)ccn1 [Example 32, 4-{2-[4-Chloro-3-(4-methyl-piperazin-1-ylmethyl)-phenylamino]-benzoxazol-5-yloxy}-pyridine-2-carboxylic acid methylamide]	< 100
CNC(=O)c1cc(Oc2ccc3oc(Nc4ccc(Cl)c(OC[C@@H]5CCCN5C(C)C)c4)nc3c2)ccn1 [Example 252, 4-{2-[4-Chloro-3-((2S)-1-isopropyl-pyrrolidin-2-ylmethoxy)-phenylamino]-benzooxazol-5-yloxy}-pyridine-2-carboxilic acid methylamide]	< 100
CN1CCN(Cc2cc(Nc3nc4cc(Oc5ccnc6[nH]ccc56)ccc4o3)ccc2Cl)CC1 [Example 46, N-(4-Chloro-3-((4-methyl-1-piperazinyl)methyl)phenyl)-5-(1H-pyrrolo[2,3-b]pyridin-4-yloxy)-1,3-benzoxazol-2-amine]	< 100
CN1CCC[C@H]1COc1cc(Nc2nc3cc(Oc4ccnc5[nH]ccc45)ccc3o2)ccc1Cl [Example 47, N-(4-Chloro-3-(((2S)-1-methyl-2-pyrrolidinyl)methoxy)phenyl)-5-(1H-pyrrolo[2,3-b]pyridin-4-yloxy)-1,3-benzoxazol-2-amine]	< 100
COc1cc2ncnc(Oc3ccc4[nH]c(Nc5ccc(Cl)c(OCC6CCN(C)CC6)c5)nc4c3)c2cc1OC [Example 238, [4-Chloro-3-(1-methylpiperidin-4-ylmethoxy)-phenyl]-[5-(6,7-dimethoxyquinazolin-4-yloxy)-1H-benzimidazol-2-yl]-amine]	< 100
CNC(=O)c1cc(Oc2ccc3[nH]c(Nc4ccc(C(F)(F)C(F)(F)F)c(OC[C@H]5CCCN5C)c4)nc3c2)ccn1 [Example 6, R-4-{2-[3-(1-Methyl-pyrrolidin-2-ylmethoxy)-4-pentafluoroethyl-phenylamino]-1H-benzimidazol-5-yloxy}-pyridine-2-carboxylic acid methylamide]	< 100
CNC(=O)c1cc(Oc2ccc3oc(Nc4ccc(Cl)c(OCCN(C)C)c4)nc3c2)ccn1 [Example 249, 4-{2-[4-Chloro-3-(2-dimethylamino-ethoxy)-phenylamino]-benzoxazol-5-yloxy}-pyridine-2-carboxylic acid methylamide]	< 100
COc1cc2nccc(Oc3ccc4[nH]c(Nc5ccc(Cl)c(CN6CCN(C)CC6)c5)nc4c3)c2cc1OC [Example 236, [4-Chloro-3-(4-methylpiperazin-1-ylmethyl)-phenyl]-[5-(6,7-dimethoxyquinolin-4-yloxy)-1H-benzimidazol-2-yl]-amine]	< 100
CNC(=O)c1cc(Oc2ccc3c(c2)nc(Nc2ccc(Cl)c(CN4CCN(C)CC4)c2)n3C)ccn1 [Example 17, 4-{2-[4-Chloro-3-(4-methyl-piperazin-1-ylmethyl)-phenylamino]-1-methyl-1H-benzimidazol-5-yloxy}-pyridine-2-carboxylic acid methylamide]	< 100
CCN(CC)CCOc1cc(Nc2nc3cc(Oc4ccnc(C(=O)NC)c4)ccc3o2)ccc1Cl [Example 248, 4-{2-[4-Chloro-3-(2-diethylamino-ethoxy)-phenylamino]-benzoxazol-5-yloxy}-pyridine-2-carboxylic acid methylamine]	< 100
COc1cc2ncnc(Oc3ccc4oc(Nc5ccc(Cl)c(OC[C@@H]6CCCN6C)c5)nc4c3)c2cc1OC [Example 263, S-[4-Chloro-3-(1-methyl-pyrrolidin-2-ylmethoxy)-phenyl]-[5-(6,7-dimethoxy-quinazolin-4-yloxy)-benzoxazol-2-yl]-amine]	< 100
CNC(=O)c1cc(Oc2ccc3oc(Nc4ccc(Cl)c(OCC5CCNCC5)c4)nc3c2)ccn1 [Example 243, 4-{2-[4-Chloro-3-(piperidin-4-ylmethoxy)-phenylamino]-benzoxazol-5-yloxy}-pyridine-2-carboxylic acid methylamide]	< 100
CC(C)N1CCC[C@H]1COc1cc(Nc2nc3cc(Oc4ccnc5[nH]ccc45)ccc3o2)ccc1Cl [Example 247, S-[4-Chloro-3-(1-isopropylpyrrolidin-2-ylmethoxy)-phenyl]-[5-(1H-pyrrolo[2,3-b]pyridin-4-yloxy)-benzoxazol-2-yl]-amine]	< 100
CNC(=O)c1cc(Oc2ccc3[nH]c(Nc4ccc(C(F)(F)F)c(OCC5CCCN5C)c4)nc3c2)ccn1 (stereo not drawn) [Example 13c]	< 100
CNC(=O)c1cc(Oc2ccc3oc(Nc4ccc(Cl)c(OCC5CCN(C)CC5)c4)nc3c2)ccn1 [Example 242, 4-{2-[4-Chloro-3-(1-methylpiperidin-4-ylmethoxy)-phenylamino]-benzoxazol-5-yloxy}-pyridine-2-carboxylic acid methylamide]	< 100
CNC(=O)c1cc(Oc2ccc3oc(Nc4ccc(Br)cc4)nc3c2)ccn1 [Example 38]	< 100
COc1cc2ncnc(Oc3ccc4[nH]c(Nc5ccc(Cl)cc5)nc4c3)c2cc1OC [Example 237, (4-Chlorophenyl)-[5-(6,7-dimethoxyquinazolin-4-yloxy)-1H-benzimidazol-2-yl]-amine]	< 100
CN(C)C1CCN(Cc2cc(Nc3nc4cc(Oc5ccnc6[nH]ccc56)ccc4o3)ccc2Cl)C1 (stereo not drawn) [Example 264, [4-Chloro-3-(3-dimethylamino-pyrrolidin-1-ylmethyl)-phenyl]-[5-(1H-pyrrolo[2,3-b]pyridin-4-yloxy)-benzoxazol-2-yl]-amine]	< 100
CN1CCC[C@H]1COc1cc(Nc2nc3cc(Oc4ccnc(C(N)=O)c4)ccc3o2)ccc1Cl [Example 240, 4-{2-[4-Chloro-3-((2S)-1-methylpyrrolidin-2-ylmethoxy)-phenylamino]-benzoxazol-5-yloxy}-pyridine-2-carboxylic acid amide]	< 100
CN1CCC[C@@H]1COc1cc(Nc2nc3cc(Oc4ccnc5ccccc45)ccc3[nH]2)ccc1C(F)(F)F [Example 29, [3-(1-Methyl-pyrrolidin-2-ylmethoxy)-4-trifluoromethyl-phenyl]-[5-(quinolin-4-yloxy)-1H-benzimidazol-2-yl]-amine]	< 100
CNC(=O)c1cc(Oc2ccc3oc(Nc4ccc(Cl)c(OCC5CCN(C(C)C)CC5)c4)nc3c2)ccn1 [Example 244, 4-{2-[4-Chloro-3-(1-isopropylpiperidin-4-ylmethoxy)-phenylamino]-benzoxazol-5-yloxy}-pyridine-2-carboxylic acid methyl amide]	< 100
